Experimental data from patent US6344180B1 (BioNebraska, Inc., priority 1999, dated 2002).
Ends that are not written are not given here.

Tests used:
pancreas = conditions: cited from earlier work
[1] = test system: insulin secretion and blood glucose; conditions: infusions in patients with type II diabetes; cited from earlier work
β-cell secretion [2] = assay: Part three: combined glucose+GLP-1 injection vs hyperglycemic clamp with L-arginine, maximal secretory capacity; assay type: in vivo, human; conditions: for Incremental C-peptide response (peak minus concentration at time of injection) / Incremental insulin response (peak minus concentration at time of injection): hyperglycemic clamp 30 mmol/l, 5 g L-arginine bolus at 45 min; for Absolute mean peak C-peptide concentration / Absolute mean peak insulin concentration: hyperglycemic clamp with 5 g L-arginine
Excerpt: (§1) The present study was divided into three parts.
(§2) Part one: Six type II diabetic patients (four men and two women, mean (range), age: 56 years (48-67 years); BMI: 31.1 kg/m^2 (27-38 kg/m^2); HbA1c; 9.6% (7,0-12.5%) ) and 6 healthy subjects individually matched for sex, age and BMI (age: 56 years (51-70 years); BMI: 31.6 kg/m^2 (26-37 kg/M^2); HbA1c: 5.5% (5.2-5.8%)). […] Part three 8 type II diabetic patients (seven men and one woman, age: 55 years (49-69 years); BMI: 30.9 kg/m^2 (27-35 kg/M^2); HbA1c: 7.6% (6.3-8.6%)) and 8 healthy subjects (age: 55 years (51-64 years); BMI 31.1 kg/m^2 (25-38 kg/m^2); HbA1c: 5.4% (5.0-6.0%)) participated. Four patients were treated with diet alone while four were treated with diet and oral antidiabetics (sulphonylureas and/or biguanides). […] All type II diabetic patients were diagnosed according to the criteria of National Diabetes Data Group. […] All agreed to participate after oral and written information.
(§3) All oral antidiabetics were discontinued 72 hours before the study.
During the hyperglycemic clamp, glucose (50% w/v) was injected at time zero to increase the plasma glucose to 30 mmol/l (calculated as follows: (30 mmol/l−fasting plasma glucose)×35 mg glucose×weight in kilogram). Plasma glucose was kept at 30 mmol/l by continuous infusion of glucose, which was adjusted according to a bedside measurement of plasma glucose ever 5 minutes. At 45 minutes, 5 g L-arginine monohydrochloride was injected as a bolus during 30 seconds. Blood was sampled 15, 10 and 0 minutes before and 5, 10, 15, 20, 25, 30, 35, 40, 45, 47, 48, 49, 51, 53, 55, 60, 65, 70, 75 and 90 minutes after elevation of plasma glucose. The L-arginine was dissolved in 50 ml of sterilized water and dispensed into glass ampoules and stored at 4° C. until the day of the experiment. Blood was sampled into fluoride tubes for measurement of glucose and into chilled EDTA tubes with aprotinin (500 KIU/ml blood; Trasylol, Bayer, Leverkusen, Germany) for peptide analyses. Tubes were immediately cooled on ice and centrifuged within 20 minutes at 4° C., and plasma was stored at −20° C. until analysis.
(§4) Plasma glucose concentrations were measured during the experiments using a glucose oxidase method with a Glucose Analyzer (Yellow Springs Instrument Model 23 A, USA). Plasma insulin concentrations were measured according to Albano et al using standards of human insulin and antibody code no. 2004. The sensitivity of the assay is approximately 3 pmol/l, the intraassay coefficient of variation is 8% at 48 pmol/l. C-peptide concentrations were determined by radioimmunoassay (RIA) as described by Heding et al employing the polyclonal antibody M1230[12]. […] The detection limit is approximately 60 pmol/l, the intra-assay coefficient of variance is 5%, interassay coefficient of variation is 7.3%. […] The assay has a detection limit of 5 pmol/l. […] The detection limit is 1 pmol/l.

β-cell secretion [3] = assay: Part one: dose-response of I.V. bolus GLP-1 compared with glucagon test, peak plasma insulin and C-peptide; assay type: in vivo, human; conditions: glucagon test 1 mg I.V. bolus
Excerpt: as §1, §2, §3
(§5) Meal test: Venous blood was drawn 15, 10 and 0 min before and 15, 30, 45, 60, 75, 90, 120, 150 and 180 minutes after ingestion of a standard breakfast meal. […] The peptide was dissolved in sterilized water containing 2% human serum albumin (Albumin Nordisk, Novo Nordisk, Bagsvaerd, Denmark, guaranteed to be free of hepatitis-B surface antigen and human immunodeficiency virus antibodies) and subjected to sterile filtration. Appropriate amounts of peptide for each experimental subject were dispensed into glass ampoules and stored frozen under sterile conditions until the day of the experiment. Part two: β-cell function was examined on 3 different days. […] Fifteen minutes later plasma glucose was elevated to 15 mmol/l by intravenous glucose (50% w/v) administration as described above.
as §4

β-cell secretion [4] = assay: Part two: 2.5 nmol GLP-1, glucagon test, combined glucose+GLP-1 injection and s.c. GLP-1, peak plasma insulin and C-peptide; assay type: in vivo, human; conditions: glucagon test 1 mg I.V.
Excerpt: as §1, §2, §3, §5, §4

## Glu Gly Thr Phe Thr Ser Asp Val Ser Ser Tyr Leu Glu Gly Gln Ala Ala Lys Glu Phe Ile Ala Trp Leu Val Lys Gly Arg (NH2) (EGTFTSDVSSYLEGQAAKEFIAWLVKGR-NH2; listed as Homo sapiens) [SEQ. ID NO:6]
pancreas
  Stimulation of production or release of insulin from the pancreas: do not stimulate

## glucose-dependent insulinotropic polypeptide [GIP]
[1]
  Effect on insulin secretion and blood glucose: little or no effect

## Glu Gly Thr Phe Thr Ser Asp Val Ser Ser Tyr Leu Glu Gly Gln Ala Ala Lys Glu Phe Ile Ala Trp Leu Val Lys Gly Arg Gly (EGTFTSDVSSYLEGQAAKEFIAWLVKGRG; listed as Homo sapiens) [SEQ. ID NO:5]
pancreas
  Stimulation of production or release of insulin from the pancreas: do not stimulate

## Cl.N=C(N)NCCC[C@H](N)C(=O)O [L-arginine, L-arginine monohydrochloride]
β-cell secretion [2]; healthy subjects
  Incremental C-peptide response (peak minus concentration at time of injection): 3391 ± 388 pmol/L
  Incremental insulin response (peak minus concentration at time of injection): 1921 ± 338 pmol/L
  Absolute mean peak C-peptide concentration: 6047 ± 652 pmol/L
  Absolute mean peak insulin concentration: 2384 ± 452 pmol/L
β-cell secretion [2]; type II diabetic patients
  Incremental C-peptide response (peak minus concentration at time of injection): 1360 ± 250 pmol/L
  Incremental insulin response (peak minus concentration at time of injection): 628 ± 226 pmol/L
  Absolute mean peak C-peptide concentration: 3043 ± 508 pmol/L
  Absolute mean peak insulin concentration: 816 ± 268 pmol/L

## glucagon
β-cell secretion [3]; healthy controls
  Peak C-peptide concentration (mean ± SEM): 1874 ± 158 pmol/L
  Peak insulin concentration (mean ± SEM): 360 ± 39 pmol/L
β-cell secretion [3]; type 2 diabetic patients
  Peak C-peptide concentration (mean ± SEM): 1643 ± 178 pmol/L
  Peak insulin concentration (mean ± SEM): 265 ± 45 pmol/L
β-cell secretion [4]; healthy controls
  Peak C-peptide concentration (mean ± SEM): 1995 ± 99 pmol/L
  Peak insulin concentration (mean ± SEM): 420 ± 61 pmol/L
β-cell secretion [4]; type 2 diabetic patients
  Peak C-peptide concentration (mean ± SEM): 1780 ± 160 pmol/L
  Peak insulin concentration (mean ± SEM): 329 ± 50 pmol/L
